Results taken from ChEMBL document CHEMBL1641603, “Inhibition of β-carbonic anhydrases with ureido-substituted benzenesulfonamides” (Bioorg Med Chem Lett, 2011).

Target: T1, PROBABLE TRANSMEMBRANE CARBONIC ANHYDRASE (CARBONATE DEHYDRATASE) (CARBONIC DEHYDRATASE) (Mycobacterium tuberculosis, UniProt P96878)
T1 sequence (P96878 whole entry): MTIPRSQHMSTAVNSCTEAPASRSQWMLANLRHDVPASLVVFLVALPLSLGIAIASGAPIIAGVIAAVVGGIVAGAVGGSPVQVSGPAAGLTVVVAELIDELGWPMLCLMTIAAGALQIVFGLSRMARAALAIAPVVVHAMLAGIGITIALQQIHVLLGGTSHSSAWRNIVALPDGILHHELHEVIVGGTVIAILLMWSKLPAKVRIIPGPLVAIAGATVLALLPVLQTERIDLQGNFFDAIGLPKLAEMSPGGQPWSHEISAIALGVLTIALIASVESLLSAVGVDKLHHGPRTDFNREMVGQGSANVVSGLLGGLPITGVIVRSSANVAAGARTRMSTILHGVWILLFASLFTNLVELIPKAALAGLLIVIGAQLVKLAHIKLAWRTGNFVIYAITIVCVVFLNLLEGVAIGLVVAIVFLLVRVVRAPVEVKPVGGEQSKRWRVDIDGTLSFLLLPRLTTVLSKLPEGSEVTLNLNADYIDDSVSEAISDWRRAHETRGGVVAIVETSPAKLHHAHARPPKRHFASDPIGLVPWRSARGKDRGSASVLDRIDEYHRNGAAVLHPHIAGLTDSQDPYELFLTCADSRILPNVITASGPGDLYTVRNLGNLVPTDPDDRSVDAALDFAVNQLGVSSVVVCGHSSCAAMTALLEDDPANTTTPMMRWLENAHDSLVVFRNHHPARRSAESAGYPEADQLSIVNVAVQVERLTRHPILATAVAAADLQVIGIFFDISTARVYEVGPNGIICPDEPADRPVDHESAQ

**Q.** `Nc1ccc(S(N)(=O)=O)cc1` [SULFANILAMIDE] was tested. Which Ki did it give?
**A.** The Ki was 6.24 µM.
